# Literature values, collected in US9682072B2, “Compositions and methods for treatment of lung dysfunction” (Children's Hospital Medical Center, priority 2015, dated 2017).
# Key:
# [1] = biological target: T1, FOXM1 (Homo sapiens, UniProt Q08050)
# T1 sequence (Q08050 1-763): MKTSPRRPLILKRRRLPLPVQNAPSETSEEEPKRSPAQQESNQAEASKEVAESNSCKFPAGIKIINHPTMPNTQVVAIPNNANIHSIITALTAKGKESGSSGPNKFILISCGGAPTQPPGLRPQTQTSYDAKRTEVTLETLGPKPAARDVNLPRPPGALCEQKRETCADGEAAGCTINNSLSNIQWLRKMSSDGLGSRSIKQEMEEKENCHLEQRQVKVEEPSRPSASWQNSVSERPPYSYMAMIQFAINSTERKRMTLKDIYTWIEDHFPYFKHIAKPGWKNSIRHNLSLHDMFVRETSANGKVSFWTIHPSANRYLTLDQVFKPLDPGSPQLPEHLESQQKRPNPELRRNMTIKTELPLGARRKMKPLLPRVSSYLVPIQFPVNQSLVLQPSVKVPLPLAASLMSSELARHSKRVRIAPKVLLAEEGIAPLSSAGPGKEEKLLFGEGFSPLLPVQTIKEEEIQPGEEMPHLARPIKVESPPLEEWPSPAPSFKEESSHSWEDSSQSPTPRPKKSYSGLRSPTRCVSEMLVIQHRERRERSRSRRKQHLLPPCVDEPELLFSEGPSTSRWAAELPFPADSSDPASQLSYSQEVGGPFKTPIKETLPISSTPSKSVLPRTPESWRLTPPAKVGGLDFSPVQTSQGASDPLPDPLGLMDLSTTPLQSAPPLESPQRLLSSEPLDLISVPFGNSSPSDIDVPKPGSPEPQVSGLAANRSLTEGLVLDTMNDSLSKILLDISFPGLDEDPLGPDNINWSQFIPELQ
# [2] = tested on: ovalbumin-induced lung inflammation; settings: mouse, in vivo
Compound,binding of FOXM1 to its target DNA [1],ovalbumin-induced lung inflammation [2]
Nc1c(C(=O)Nc2ccc(F)cc2)sc2nc(-c3cccs3)cc(C(F)(F)F)c12 [FDI-6],inhibits,
N#CC(=C(/N)Sc1ccccc1N)/C(C#N)=C(\N)Sc1ccccc1N [Compound U0126],,diminished
